Assay results reported in patent CN103301132A, “川芎嗪仲、叔醇类衍生物及其在制药中的应用” (Nanjing University of Chinese Medicine, priority 2013, dated 2013).
Where two headings read alike, the source gives them in different places. Values belong to the molecule of their own block, whether it stands above or below them.

Legend:
[1] = Further study of other liguzinediol derivatives (activity, arrhythmia); conditions: no details given
[2] = cited from earlier work
[3] = test system: isolated rat heart [Isolated Rat Heart]; conditions: pharmacological studies; cited from earlier work
[4] = biological target: T1, SERCA2a in cardiomyocytes [心肌细胞内的SERCA2a靶点] (Homo sapiens, UniProt P16615); conditions: mechanism study; cited from earlier work
T1 construct: 心肌细胞内的SERCA2a靶点; endogenous in cells
T1 sequence (P16615 1-997 isoform P16615-2): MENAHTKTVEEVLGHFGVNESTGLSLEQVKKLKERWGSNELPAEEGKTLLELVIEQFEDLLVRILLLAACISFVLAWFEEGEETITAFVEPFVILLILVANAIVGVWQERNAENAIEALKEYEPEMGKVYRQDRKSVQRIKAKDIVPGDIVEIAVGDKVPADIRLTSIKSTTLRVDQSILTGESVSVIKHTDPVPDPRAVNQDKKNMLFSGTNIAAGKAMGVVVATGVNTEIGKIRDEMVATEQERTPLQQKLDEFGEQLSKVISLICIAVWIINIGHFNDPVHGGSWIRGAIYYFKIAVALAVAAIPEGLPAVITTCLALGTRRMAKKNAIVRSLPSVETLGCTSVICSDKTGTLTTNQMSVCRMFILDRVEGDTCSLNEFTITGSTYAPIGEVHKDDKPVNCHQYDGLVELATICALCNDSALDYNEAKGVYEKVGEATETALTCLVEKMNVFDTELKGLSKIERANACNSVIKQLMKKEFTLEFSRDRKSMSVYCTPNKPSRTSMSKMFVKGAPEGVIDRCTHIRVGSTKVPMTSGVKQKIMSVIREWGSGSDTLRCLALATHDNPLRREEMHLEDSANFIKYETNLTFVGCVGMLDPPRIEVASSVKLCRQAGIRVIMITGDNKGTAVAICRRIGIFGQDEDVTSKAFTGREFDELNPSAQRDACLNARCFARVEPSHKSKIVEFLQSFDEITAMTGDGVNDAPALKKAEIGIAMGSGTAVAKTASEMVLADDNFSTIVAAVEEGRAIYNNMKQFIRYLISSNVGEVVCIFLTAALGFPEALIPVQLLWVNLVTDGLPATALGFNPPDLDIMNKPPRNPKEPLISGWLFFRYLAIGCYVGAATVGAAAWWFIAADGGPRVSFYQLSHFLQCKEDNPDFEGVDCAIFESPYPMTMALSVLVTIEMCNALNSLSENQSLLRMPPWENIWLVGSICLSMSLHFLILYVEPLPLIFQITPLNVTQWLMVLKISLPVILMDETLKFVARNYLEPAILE

[5] = Pharmacokinetics in Sprague-Dawley rats (plasma, HPLC); type: in vivo; conditions: SD rat; for AUC / half-life: gavage and tail vein dosing
[6] = 10 mg/kg, low dose (doses 10, 20, 40 mg·kg-1), route not given
[7] = 20 mg/kg, middle dose (doses 10, 20, 40 mg·kg-1), route not given
[8] = high dose (doses 10, 20, 40 mg·kg-1), route not given

SMILES: CCOCc1nc(C)c(COCC)nc1C [2,5-二乙氧甲基-3,6-二甲基吡嗪]
- arrhythmia [1]: 会导致心律失常

SMILES: COCc1nc(C)c(COC)nc1C [2,5-二甲氧甲基-3,6-二甲基吡嗪]
- arrhythmia [1]: 会导致心律失常

SMILES: Cc1nc(C(=O)O)c(C)nc1C(=O)O [3,6-二甲基-2,5-吡嗪二甲酸]
- activity [1]: 明显下降

SMILES: Cc1nc(CO)c(C)nc1CO [liguzinediol, 2,5-二羟甲基-3,6-二甲基吡嗪]
- half-life ([2]; in animals): 1.6 h
- metabolic rate ([2]; in animals): 相对较快
- glucuronide conjugate formation ([2]; in vivo): 很快地形成了葡萄糖醛酸结合物而排出体外
- oxidation of hydroxymethyl and side-chain methyl ([2]; in vivo): 容易被氧化成极性和水溶性较大的化合物而排出体外
- arrhythmia side effect [3]: 没有心律失常副作用
- positive inotropic effect [3]: 明显的正性肌力作用
- mechanism of positive inotropic effect [4]: 通过作用于心肌细胞内的SERCA2a靶点而发挥正性肌力作用

- AUC [5, 6]: 34000 ng·h/mL
- half-life [5, 6]: 3.7 h
- AUC [5, 7]: 70000 ng·h/mL
- half-life [5, 7]: 3.6 h
- AUC [5, 8]: 135000 ng·h/mL
- half-life [5, 8]: 3.5 h
- clearance ([5]; low, middle and high doses, route not given): ~5 mL/min/kg
- bioavailability ([5]; po, gavage and tail vein injection, 10, 20, 40 mg·kg-1): 90%
SMILES: CCC(O)c1nc(C)c(C(O)CC)nc1C (stereo not drawn) [化合物2, 2,5-二-(1-羟基丙基)-3,6-二甲基吡嗪]
